Source: patent US20220288022A1, “PHARMACEUTICAL COMPOSITION FOR TOPICAL USE THAT IS IN THE FORM OF A DISPERSED PHASE BASED ON AT LEAST ONE SHORT DIOL IN A CONTINUOUS FATTY PHASE AND COMPRISING AT LEAST ONE ANTI-INFLAMMATORY SUBSTANCE” (SOCIETE D'EXPLOITATION DE PRODUITS POUR LES INDUSTRIES …, priority 2019, published 2022)

Experiment: Conductivity (σ) of the emulsions, characterization of the direction of the emulsion
Assay type: physicochemical
Conditions: measured at 25° C., neat diol
Method: The conductivity (σ) of the emulsions (F1) to (F3) according to the invention and of the emulsions (F′1) to (F′3) is measured at 25° C., after a period of storage of said emulsions of one day in an insulated climatic chamber regulated at a temperature of 25° C., by means of an LF 196™ brand conductivity meter from the company WTW equipped with a TetraCon™ 96 electrode. If, for a given emulsion, (σ)≤0.5 μS.cm^−1, the emulsion is considered to be non-conductive and consequently the external phase is not the phase based on 1,2-propanediol but the oily phase. Indeed, the conductivity, measured at 25° C., of 1,2-propanediol is equal to 4400 μS.cm^−1. If, for a given emulsion, (σ)>0.5 μS.cm^−1, the emulsion is considered to be conductive and consequently the external phase is not the oily phase but the phase based on 1,2-propanediol or glycerol or PEG-400. This same measurement of the conductivity of the emulsions (F1) to (F3) according to the invention and of the comparative emulsions (F′1) to (F′3) is measured at 25° C. after three months at 25° C., and after three months at 45° C.

CC(O)CO (stereo not shown) [1,2-propanediol]
conductivity of 1,2-propanediol: 4400 μS.cm^−1
